Results published in PMC5352362, “Molecular and functional evaluation of a novel HIF inhibitor, benzopyranyl 1,2,3-triazole compound” (Oncotarget, 2016).
Entries after “also recorded” stand apart in the source; their conditions may differ.

System: Lewis lung carcinoma (LLC) cells
Assay: Lewis lung carcinoma allograft in C57BL/6J mice with immunohistochemistry
Format: in vivo, mouse
Method: HIF-1α is synthesized by growth factor signaling pathways, such as those of EGFR [30] [31]. Inhibition of HIF-1α in its pathways of synthesis, as well as in its pathway of degradation, would seem to make for a more efficient anti-cancer/anti-angiogenesis treatment. To confirm this, we performed a tumor allogaft experiment using Lewis lung carcinoma (LLC) cells. 1 × 10^6 LLC cells were inoculated into the mouse flank subcutaneously (s.c.), and treatment with Compound 12 (5 mg/kg) and/or gefitinib (an EGFR inhibitor, 50 mg/kg), via intraperitoneal (i.p.) administration, was performed every other day for 20 days. At Day 20, mice were sacrificed and tumor tissue was fixed in formaldehyde for 1 h for further histological examination. […] To confirm the effect of Compound 12 on angiogenesis, we analyzed angiogenesis using the Matrigel plug assay. […] To confirm the effects of Compound 12 on anti-angiogenesis, we sectioned the tumor tissues to determine microvessel density (MSD) via immunohistochemistry (using CD31 antibody).
Figure 6 Compound 12 suppressed allogaft tumor growth and enhanced the effects of a chemotherapeutic agent (A, B) Lewis lung carcinoma cells were inoculated into flanks of C57BL/6J mice (Day 0). From two days after inoculation, mice were treated intraperitoneally with Compound 12 (5 mg/kg body weight) and gefitinib (50 mg/kg body weight), three times a week, for 18 days and then sacrificed. Tumor size (A) and tumor weight (B) were measured three times a week and on the final day, respectively. Tumor masses were photographed and shown in box below the graph. **P < 0.05 versus control group. (C) Matrigel was treated with DMSO, Compound 12 (100 nM), and gefitinib (5 μM) and inoculated in the flank of C57BL/6J mice. After 10 days matrigel plug was removed and photographed. The content of hemoglobin was quantified and graphed. (D) Tumor tissue sections (10 μm) indicated were stained with H&E and immunostained with anti-CD31 antibody to detect microvessel density; CD31+ cell percentages were then calculated and graphed. Scale bar, 100 μm. **P < 0.05 versus control group. (E) Images and quantitative comparisons (graph) for hypoxic regions, immunostained CA9 protein, and microvessels (CD31+ cells) in tumor center regions are shown. Scale bar, 100 μm. **P < 0.05 versus control group. (F) Images and quantitative comparisons (graph) for Ki67+ proliferating cells in tumor center regions are shown. Scale bar, 100 μm. **P < 0.05 versus control group.
We determined levels of hypoxia in tissues via: 1) antibodies against the hypoxic cell marker pimonidazole (PIMO), and 2) checking expression levels of carbonic anhydrase (CA9), a downstream target of HIF-1.
LLC cells (1 × 10^6) were injected subcutaneously into the flanks of 6-week-old C57BL/6J mice (Day 0)(SLC, Japan). Tumor size and body weight were measured 3 time a week. Tumor tissues were removed at day 20 after completion of injection of vehicle or drugs and fixed with 4% paraformaldehyde (PFA). After tissue processing for frozen sample preparation protocol, samples were embedded in OCT compound and frozen quickly by liquid nitrogen. Frozen blocks were cut into 10 μm sections and stained with hematoxylin and eosin (H&E) for light microscopy. Additional tissue sections for immunohistochemistry were blocked with 5% goat serum in PBST (0.03% Triton X-100 in PBS) and then incubated for 3 h at RT with following primary antibodies, anti-CD31 and anti-Ki67. To detect the hypoxic area in the tumors, Hypoxyprobe-1™ (60 mg/kg, Natural Pharmacia International) was iv injected 90 min before tissue fixation. Tumors were harvested, sectioned and stained with FITC-conjugated anti-Hypoxyprobe antibody.

Structure (SMILES): COc1ccc(-c2cn(CC3(C)C=Cc4cc([N+](=O)[O-])ccc4O3)nn2)cc1 (centres unmarked) [Compound 12, 4-(4-methoxyphenyl)-1-((2-methyl-6-nitro-2H-chromen-2-yl)methyl)-1H-1,2,3-triazole]
- PIMO/CA9 levels in tumors, Compound 12 combined with gefitinib (LLC allograft tumor sections): decreased synergistically
- levels of PIMO and CA9 in tumors, single agent (LLC allograft tumor sections): significantly diminished
- microvessel density (MSD), CD31, Compound 12 combined with gefitinib (LLC allograft tumor sections): synergistically decreased MSD
- microvessel density (MSD), CD31, single agent (LLC allograft tumor sections): significantly decreased MSD
- cells expressing Ki-67 protein in tumors (LLC allograft tumor sections, single agent): significantly decreased
- tumor growth, single agent (LLC allograft, C57BL/6J mice, i.p., Compound 12 5 mg/kg, gefitinib 50 mg/kg): inhibited tumor growth significantly
- tumor weight (LLC allograft, i.p., 5 mg/kg, final day): significantly decreased
- tumor growth, Compound 12 combined with gefitinib (LLC allograft, i.p., Compound 12 5 mg/kg plus gefitinib 50 mg/kg): significantly inhibited tumor growth and angiogenesis; also recorded: suppressed tumor growth more effectively than did either drug alone
